Measurements: US11466044B2 (WAYNE STATE UNIVERSITY, priority 2017, dated 2022)
Values after ≈ are worked out from the molar mass of the structure shown. Counter-ions that a name gives are not always drawn. Like-named read-outs stand apart in the source and are kept apart here.

Assays:
N. gonorrhoeae = assay: Disk diffusion, N. gonorrhoeae; assay type: cell-based; conditions: Neisseria gonorrhoeae
M. smegmatis SZ380 = assay: MIC by broth microdilution, M. smegmatis
[1] = system: Acinetobacter baumannii pittii AG225; assay: MIC by broth microdilution, Acinetobacter baumannii; assay type: cell-based; conditions: strain AG225 Acinetobacter baumannii pittii
[2] = system: Enterobacter cloacae AG290; assay: MIC by broth microdilution, Enterobacter cloacae; assay type: cell-based; conditions: strain AG290 Enterobacter cloacae; read-out: MIC AG290 E. cloacae
[3] = system: mitochondrial ribosome (human chimeric); assay type: biochemical; conditions: mitochondrial, read-out: IC50 Mit
Source text: (§1) The antiribosomal activity of these compounds was investigated with cell-free translation assays using both wild type bacterial ribosomes and hybrid ribosomes carrying eukaryotic decoding A sites enabling the prediction of selectivity.

[4] = system: cytosolic ribosome (human chimeric); assay type: biochemical; conditions: cytosolic, read-out: IC50 Cyt
Source text: as §1

MRSA = assay: MIC by broth microdilution, MRSA isolates; assay type: cell-based; conditions: for MIC50: Staphylococcus aureus, MRSA
P aeruginosa = assay: MIC by broth microdilution, P aeruginosa isolates; assay type: cell-based, Pseudomonas aeruginosa; conditions: for MIC: strain AG220 Pseudomonas aeruginosa ATCC27853, read-out: MIC AG220 P. aerugin; for MIC50: Pseudomonas aeruginosa
E coli wild type = assay: MIC by broth microdilution, wild type E coli; assay type: cell-based; conditions: for MIC / MIC50: Escherichia coli; for MIC50: Table 1 (Example 1)
[5] = system: Klebsiella pneumonia AG215; assay: MIC by broth microdilution, Klebsiella pneumonia; assay type: cell-based; conditions: Klebsiella pneumoniae; strain AG215 Klebsiella pneumonia; read-out: MIC AG215 K. pneumon
[6] = system: E coli carrying specific resistance determinants; assay: MIC by broth microdilution, E coli carrying specific resistance determinants; assay type: cell-based; conditions: Escherichia coli
[7] = system: wild type bacterial ribosomes; assay: in-vitro translation assay, bacterial ribosomes; assay type: biochemical; conditions: bacterial ribosome, read-out: IC50 Bac
Source text: as §1

[8] = ATCC25922, strain AG212 E. coli (ATCC25922), read-out: MIC AG212 E. coli

CC1CC(O)C2O[C@H](O[C@@H]3C(N)C[C@@H](N)C(O)[C@H]3O[C@@H]3O[C@H](CO)[C@H](O[C@H]4O[C@@H](CN)[C@@H](O)C(O)C4N)C3O)C(N)[C@@H](O)[C@@H]2O1 (stereo partly drawn) [Compound 125, 4-O-(2′-Amino-4′,8′-anhydro-2′,7′,9′-trideoxy-D-threo-α-D-gluco-nonapyranosyl)-5-O-[3-O-(2,6-diamino-2,6-dideoxy-β-L-idopyranosyl)-β-D-ribofuranosyl]-2-deoxystreptamine.5AcOH]
zone of inhibition at 25 nmol/disc (N. gonorrhoeae): 9 mm
MIC SZ380 M. smegmatis (M. smegmatis SZ380; strain SZ380 Mycobacterium smegmatis): 0.5 µg/mL (≈ 0.763 µM)
MIC [1]: 4 µg/mL (≈ 6.1 µM)
MIC [2]: 2 µg/mL (≈ 3.05 µM)
IC50 ([3]; Table 3 (Example 2)): 312 µM
IC50 ([4]; Table 3 (Example 2)): 30 µM
MIC50 MRSA AG38 (MRSA; strain AG38, Table 1 (Example 2)): 8 to 16 µg/mL
MIC50 MRSA AG39 (MRSA; strain AG39, Table 1 (Example 2)): 8 µg/mL (≈ 12.2 µM)
MIC50 MRSA AG42 (MRSA; strain AG42, Table 1 (Example 2)): 8 µg/mL (≈ 12.2 µM)
MIC50 MRSA AG44 (MRSA; strain AG44, Table 1 (Example 2)): 4 µg/mL (≈ 6.1 µM)
MIC50 P aeruginosa AG31 (P aeruginosa; strain AG31, Table 1 (Example 2)): 32 µg/mL (≈ 48.8 µM)
MIC50 P aeruginosa AG32 (P aeruginosa; strain AG32, Table 1 (Example 2)): 16 to 32 µg/mL
MIC50 P aeruginosa AG33 (P aeruginosa; strain AG33, Table 1 (Example 2)): >128 µg/mL
MIC50 P aeruginosa AG86 (P aeruginosa; strain AG86, Table 1 (Example 2)): >128 µg/mL
MIC (P aeruginosa): 8 µg/mL (≈ 12.2 µM)
MIC50 E coli BM13 (AG06) wt (E coli wild type; BM13 (AG06) wt, Table 2A (Example 2)): 2 µg/mL (≈ 3.05 µM)
MIC (E coli wild type; [8]): 2 µg/mL (≈ 3.05 µM)
MIC WT (E coli wild type; WT, Table 3 (Example 2)): 1 to 2 µg/mL
MIC50 E coli pH430 WT (E coli wild type; pH430 WT, Table 2B (Example 2)): 1-2 μg/ml
MIC50 E coli AG01 (E coli wild type; strain AG01, Table 1 (Example 2)): 8 µg/mL (≈ 12.2 µM)
MIC50 E coli AG03 (E coli wild type; strain AG03, Table 1 (Example 2)): 8 µg/mL (≈ 12.2 µM)
MIC50 E coli AG55 (E coli wild type; strain AG55, Table 1 (Example 2)): 8 µg/mL (≈ 12.2 µM)
MIC [5]: 2 µg/mL (≈ 3.05 µM)
MIC50 ([6]; read-out: MIC50 E coli AG07 AAC(3), AG07 AAC(3), Table 2A (Example 2)): 8 µg/mL (≈ 12.2 µM)
MIC50 ([6]; read-out: MIC50 E coli AG09 AAC(6′), AG09 AAC(6′), Table 2A (Example 2)): 4 µg/mL (≈ 6.1 µM)
MIC50 ([6]; read-out: MIC50 E coli AG036 ANT(4′,4″), AG036 ANT(4′,4″), Table 2A (Example 2)): 2 to 4 µg/mL (≈ 3.05 to 6.1 µM)
MIC50 ([6]; read-out: MIC50 E coli AG036 ANT(4′,4″), AG036 ANT(4′,4″), Table 2B (Example 2)): 0.5 µg/mL (≈ 0.763 µM)
MIC50 ([6]; read-out: MIC50 E coli AG037 APH(3′)-III, AG037 APH(3′)-III, Table 2B (Example 2)): 16 µg/mL (≈ 24.4 µM)
MIC50 ([6]; read-out: MIC50 E coli AG037 APH(3′,5″), AG037 APH(3′,5″), Table 2A (Example 2)): 32 to 64 µg/mL (≈ 48.8 to 97.6 µM)
MIC50 ([6]; read-out: MIC50 E coli AG103 ArmA, AG103 ArmA, Table 2A (Example 2)): 4 µg/mL (≈ 6.1 µM)
MIC50 ([6]; read-out: MIC50 E coli AG103 armA, AG103 armA, Table 2B (Example 2)): 1 to 2 µg/mL (≈ 1.53 to 3.05 µM)
MIC50 ([6]; read-out: MIC50 E coli AG105 AAC(2′), AG105 AAC(2′), Table 2A (Example 2)): 2 to 4 µg/mL (≈ 3.05 to 6.1 µM)
MIC50 ([6]; read-out: MIC50 E coli pH414 AAC(6′)-I, pH414 AAC(6′)-I, Table 2B (Example 2)): 1 µg/mL (≈ 1.53 µM)
MIC50 ([6]; read-out: MIC50 E coli pH415 AAC(6′)-II, pH415 AAC(6′)-II, Table 2B (Example 2)): 1 to 2 µg/mL (≈ 1.53 to 3.05 µM)
MIC50 ([6]; read-out: MIC50 E coli pH421 APH(3′)-I, pH421 APH(3′)-I, Table 2B (Example 2)): > 32 µg/mL
MIC50 ([6]; read-out: MIC50 E coli pH422 APH(3′)-II, pH422 APH(3′)-II, Table 2B (Example 2)): 4 µg/mL (≈ 6.1 µM)
MIC50 ([6]; read-out: MIC50 E coli pH423 APH(3)-VI, pH423 APH(3)-VI, Table 2B (Example 2)): 2 µg/mL (≈ 3.05 µM)
MIC50 ([6]; read-out: MIC50 E coli pH432 ANT(4′), pH432 ANT(4′), Table 2B (Example 2)): 1 to 2 µg/mL (≈ 1.53 to 3.05 µM)
MIC ([6]; read-out: MIC AAC(6′)): 1 to 2 µg/mL (≈ 1.53 to 3.05 µM)
MIC ([6]; read-out: MIC ANT(4′)): 0.5 µg/mL (≈ 0.763 µM)
MIC ([6]; read-out: MIC APH(3′)-II): 4 µg/mL (≈ 6.1 µM)
MIC ([6]; read-out: MIC APH(3′)-VI): 2 µg/mL (≈ 3.05 µM)
IC50 ([7]; Table 3 (Example 2)): 0.04 µM

NC[C@@H]1O[C@H](O[C@@H]2C(O)[C@H](O[C@@H]3C(O)[C@H](N)CC(N)[C@H]3O[C@H]3OC(CO)[C@@H](O)[C@H](O)C3N)O[C@@H]2CNC=O)C(N)C(O)[C@@H]1O (stereo partly drawn) [Compound 137, 5″-Deoxy-5″-formamido-paromomycin acetate salt]
zone of inhibition at 25 nmol/disc (N. gonorrhoeae): 11 mm
MIC (M. smegmatis SZ380; Mycolicibacterium smegmatis, SZ380, read-out: MIC SZ380 M. smegmatis, strain SZ380 Mycobacterium smegmatis): 1 µg/mL
MIC [1]: 2 µg/mL
MIC [2]: 1 to 2 µg/mL
IC50 ([3]; Table 3 (Example 1)): 144 µM
IC50 ([4]; Table 3 (Example 1)): 90 µM
MIC50 (MRSA; read-out: MIC50 MRSA AG39): > 128 µg/mL
MIC50 (MRSA; read-out: MIC50 MRSA AG42): > 128 µg/mL
MIC50 (MRSA; strain AG38, Table 1 (Example 1), read-out: MIC50 MRSA AG38): 4 µg/mL
MIC50 (MRSA; strain AG44, Table 1 (Example 1), read-out: MIC50 MRSA AG44): 2 to 4 µg/mL
MIC50 (P aeruginosa; read-out: MIC50 P aeruginosa AG31): 128 µg/mL
MIC50 (P aeruginosa; read-out: MIC50 P aeruginosa AG32): 128 µg/mL
MIC50 (P aeruginosa; read-out: MIC50 P aeruginosa AG33): > 128 µg/mL
MIC50 (P aeruginosa; read-out: MIC50 P aeruginosa AG86): > 128 µg/mL
MIC (P aeruginosa): > 64 µg/mL
MIC (E coli wild type; AG006 wt, Table 2 (Example 1), read-out: MIC E coli AG006 wt): 1 µg/mL
MIC (E coli wild type; AG102 wt, Table 2 (Example 1), read-out: MIC E coli AG102 wt): 1 µg/mL
MIC (E coli wild type; AG160 wt, Table 2 (Example 1), read-out: MIC E coli AG160 wt): 2 µg/mL
MIC (E coli wild type; [8]): 2 µg/mL
MIC (E coli wild type; WT, Table 3 (Example 1), read-out: MIC WT): 1 to 2 µg/mL
MIC (E coli wild type; clinical isolate AG160 WT, Table 2 (Example 4), read-out: MIC AG160 E. coli WT): 2 µg/mL
MIC (E coli wild type; engineered strain pH430 WT, Table 2 (Example 4), read-out: MIC pH430 E. coli WT): 1 to 2 µg/mL
MIC50 (E coli wild type; strain AG01, read-out: MIC50 E coli AG01): 4 µg/mL
MIC50 (E coli wild type; strain AG03, read-out: MIC50 E coli AG03): 4 µg/mL
MIC50 (E coli wild type; strain AG55, read-out: MIC50 E coli AG55): 4 µg/mL
MIC [5]: 1 µg/mL
MIC ([6]; read-out: MIC AG037 E. coli APH(3′)-III): 128 µg/mL
MIC ([6]; read-out: MIC AG163 E. coli APH(3′)-I): 64 µg/mL
MIC ([6]; read-out: MIC AG166 E. coli APH(3′)-II): > 128 µg/mL
MIC ([6]; read-out: MIC APH(3)-VI): > 64 µg/mL
MIC ([6]; read-out: MIC APH(3′)-I): > 64 µg/mL
MIC ([6]; read-out: MIC APH(3′)-II): > 64 µg/mL
MIC ([6]; read-out: MIC APH(3′)-III): > 64 µg/mL
MIC ([6]; read-out: MIC E coli AG007 ANT(3″) AAC(3)-I): 4 µg/mL
MIC ([6]; read-out: MIC E coli AG103 ArmA): 8 µg/mL
MIC ([6]; read-out: MIC E coli AG163/164 APH(3′)-Ia): 32 to 64 µg/mL
MIC ([6]; read-out: MIC E coli AG166 APH(3′)-IIa): > 128 µg/mL
MIC ([6]; read-out: MIC pH421 E. coli APH(3′)-I): > 64 µg/mL
MIC ([6]; read-out: MIC pH422 E. coli APH(3′)-II): > 64 µg/mL
MIC ([6]; read-out: MIC pH423 E. coli APH(3′)-VI): > 64 µg/mL
IC50 ([7]; Table 3 (Example 1)): 0.04 µM
